{"source": "the NIST ThermoML archive (doi:10.1021/acs.jced.9b00484)", "test": "Boiling temperature at pressure P", "settings": "Liquid, Ebulliometric method (Recirculating still)", "note": "± gives the expanded uncertainty stated by the source.", "data": [{"smiles": "ClCCCl", "note": "[1,2-dichloroethane]", "values": [{"measurement": "Boiling temperature at pressure P", "setting": "60.01 kPa", "value": "67.30 ± 0.33", "unit": "°C"}, {"measurement": "Boiling temperature at pressure P", "setting": "66.68 kPa", "value": "70.70 ± 0.31", "unit": "°C"}, {"measurement": "Boiling temperature at pressure P", "setting": "73.35 kPa", "value": "73.40 ± 0.29", "unit": "°C"}, {"measurement": "Boiling temperature at pressure P", "setting": "80.02 kPa", "value": "76.30 ± 0.29", "unit": "°C"}, {"measurement": "Boiling temperature at pressure P", "setting": "86.69 kPa", "value": "78.90 ± 0.27", "unit": "°C"}, {"measurement": "Boiling temperature at pressure P", "setting": "101.35 kPa", "value": "84.10 ± 0.27", "unit": "°C"}]}]}
